Paper PMC5603227 (ChemMedChem, 2017)
In brackets after ≈: the same amount, converted by molar mass.

How the values were obtained:
Format in all cases: cell-based, Mycobacterium tuberculosis
[1] = test system: Rifampicin resistant strain ACTCC35838; experiment: microbe, parasite or virus in culture; settings: for MIC: Mycobacterium tuberculosis, ACTCC35838, read-out: MIC RIF res2
[2] = test system: Fluoroquinolone resistant strain derived from H37Rv Mtb, gyrA mutant (D94N)
[3] = test system: Isoniazid resistant strain ACTCC35822; experiment: microbe, parasite or virus in culture; settings: for MIC: Mycobacterium tuberculosis, ACTCC35822, read-out: MIC INH res2
[4] = test system: Rifampicin resistant strain derived from H37Rv Mtb, ropB mutant (S522L)
[5] = test system: Isoniazid resistant strain derived from H37Rv Mtb, katG mutant (Y155*)

Row | Compound | MIC [1] [µM] | MIC FQ res [2] [µM] | MIC [3] [µM] | MIC RIF res1 [4] [µM] | MIC INH res1 [5] [µM] | MIC RIF res2 ([1]; ACTCC35838) [µM] | MIC INH res2 ([3]; ACTCC35822) [µM]
1 | Cc1ccn2c(C(=O)NCc3ccc(S(F)(F)(F)(F)F)cc3)c(C)nc2c1 [Compound 13, 2,7-Dimethyl-N-(4-(pentafluoro-λ^6-sulfanyl)benzyl)imidazo[1,2-a]pyridine-3-carboxamide] | 0.52 (≈ 0.211 µg/mL) | 0.36 (≈ 0.146 µg/mL) | 0.24 (≈ 0.0973 µg/mL) | 0.079 (≈ 0.032 µg/mL) | 0.070 (≈ 0.0284 µg/mL) | – | –
2 | Cc1ccn2c(C(=O)NCc3cccc(S(F)(F)(F)(F)F)c3)c(C)nc2c1 [Compound 14, 2,7-Dimethyl-N-(3-(pentafluoro-λ^6-sulfanyl)benzyl)imidazo[1,2-a]pyridine-3-carboxamide] | 0.13 (≈ 0.0527 µg/mL) | 2.5 (≈ 1.01 µg/mL) | 4 (≈ 1.62 µg/mL) | 1.3 (≈ 0.527 µg/mL) | 3.4 (≈ 1.38 µg/mL) | – | –
3 | Cc1ccc2nc(C)c(C(=O)NCc3ccc(S(F)(F)(F)(F)F)cc3)n2c1 [Compound 15, 2,6-Dimethyl-N-(4-(pentafluoro-λ^6-sulfanyl)benzyl)imidazo[1,2-a]pyridine-3-carboxamide] | 0.016 (≈ 0.00649 µg/mL) | 0.021 (≈ 0.00851 µg/mL) | 0.011 (≈ 0.00446 µg/mL) | 0.0060 (≈ 0.00243 µg/mL) | 0.044 (≈ 0.0178 µg/mL) | – | –
4 | Cc1ccc2nc(C)c(C(=O)NCc3cccc(S(F)(F)(F)(F)F)c3)n2c1 [Compound 16, 2,6-Dimethyl-N-(3-(pentafluoro-λ^6-sulfanyl)benzyl)imidazo[1,2-a]pyridine-3-carboxamide] | 7.2 (≈ 2.92 µg/mL) | 2.7 (≈ 1.09 µg/mL) | 2.4 (≈ 0.973 µg/mL) | 0.35 (≈ 0.142 µg/mL) | 3.1 (≈ 1.26 µg/mL) | – | –
5 | CCc1nc2ccc(Cl)cn2c1C(=O)NCc1ccc(S(F)(F)(F)(F)F)cc1 [Compound 17, 6-Chloro-2-ethyl-N-(4-(pentafluoro-λ^6-sulfanyl)benzyl)imidazo[1,2-a]pyridine-3-carboxamide] | 0.022 (≈ 0.00968 µg/mL) | 0.083 (≈ 0.0365 µg/mL) | 0.021 (≈ 0.00924 µg/mL) | 0.0089 (≈ 0.00391 µg/mL) | 0.051 (≈ 0.0224 µg/mL) | – | –
6 | CCc1nc2ccc(Cl)cn2c1C(=O)NCc1cccc(S(F)(F)(F)(F)F)c1 [Compound 18, 6-Chloro-2-ethyl-N-(3-(pentafluoro-λ^6-sulfanyl)benzyl)imidazo[1,2-a]pyridine-3-carboxamide] | 0.5 (≈ 0.22 µg/mL) | 2.9 (≈ 1.28 µg/mL) | 2.7 (≈ 1.19 µg/mL) | 1.5 (≈ 0.66 µg/mL) | 2.9 (≈ 1.28 µg/mL) | – | –
7 | Cc1cn2c(C(=O)NCc3ccc(S(F)(F)(F)(F)F)cc3)c(C)nc2s1 [Compound 19, 2,6-Dimethyl-N-(4-(pentafluoro-λ^6-sulfanyl)benzyl)imidazo[2,1-b]thiazole-5-carboxamide] | 0.64 (≈ 0.263 µg/mL) | 0.33 (≈ 0.136 µg/mL) | 0.39 (≈ 0.16 µg/mL) | 0.26 (≈ 0.107 µg/mL) | 0.60 (≈ 0.247 µg/mL) | – | –
8 | NNC(=O)c1ccncc1 [INH, Isoniazid, reference compound] | 0.37 (≈ 0.0507 µg/mL) | 0.34 (≈ 0.0466 µg/mL) | > 200 | 0.160 (≈ 0.0219 µg/mL) | >200 | – | –
9 | CO[C@H]1/C=C/O[C@@]2(C)Oc3c(C)c(O)c4c(O)c(c(/C=N/N5CCN(C)CC5)c(O)c4c3C2=O)NC(=O)/C(C)=C\C=C\[C@H](C)[C@H](O)[C@@H](C)[C@@H](O)[C@@H](C)[C@H](OC(C)=O)[C@@H]1C [RIF, Rifampicin, reference compound] | > 50 | 0.043 (≈ 0.0354 µg/mL) | 0.013 (≈ 0.0107 µg/mL) | 3.2 (≈ 2.63 µg/mL) | 0.027 (≈ 0.0222 µg/mL) | – | –
10 | Levoflaxacin [reference compound] | – | 91 | – | 3.43 | 3.97 | 3.83 | 5.83
